Assay results reported in ChEMBL document CHEMBL1201862, “PubChem BioAssay data set” (2004).
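1) Cells in 96-well plates. 2) Compound, 48 h, 5 concentrations. 3) Linear interpolation between surrounding doses. 4) Unreached endpoint = highest concentration. GI50 is the concentration that inhibits growth by half.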 Active and inactive are the calls of the source. Cut-off read from the data, not from the text of the source: active = GI50 up to about 1.1 µM and inactive = higher.

Columns and labels:
Test in all cases: NCI tumour cell line growth inhibition, 48 h
PC-3 = system: PC-3
DU-145 = system: DU-145
Hs-578T = system: Hs-578T
T47D = system: T47D
MDA-MB-435 = system: MDA-MB-435
MDA-N = system: MDA-N
BT-549 = system: BT-549

Measured: GI50

Cc1coc2c1C[C@@]1(C)[C@H](CCC[C@@H]1C)[C@H]2O
inactive: PC-3 19.1 µM | DU-145 11.9 µM | Hs-578T 71.1 µM | T47D 19.9 µM | MDA-MB-435 30.1 µM | MDA-N 49.9 µM

Cc1ccc2c(O)cc(-c3ccc(F)cc3)nc2n1
inactive: DU-145 81.7 µM | Hs-578T 26.5 µM | T47D 41.9 µM | BT-549 86.3 µM | MDA-N 12.1 µM
